For data set [1] the following is noted: pH of 7.4, 60 MHz, 25° C.; cited from earlier work.
A short description of data set [2]: Kinetic inertness: half-life by transmetallation of the Mn2+ complex with excess Zn2+, followed by water proton relaxation rates. Type of data set: physicochemical. The note with it: 25 eq Zn^2+, pH = 6, 37° C.; read-out: Half-life in excess of Zn^2+ (t1/2) (converted). As for the experimental part: The excess of the exchanging metal ion guarantees the pseudo-first order conditions. For the duration of the experiments (up to 3 months), the samples were stored in a thermostat at 37° C. between the relaxivity measurements. The pH was controlled for each sample at the end of the kinetic measurements to confirm that it remained stable during the experiment. The reactions were monitored by measuring the water proton relaxation rates at 60 MHz on a relaxometer commercialized under the brand name Minispec by the firm a Bruker. The analysis of the experimental data was performed using Visualiseur/Optimiseur running on a MATLAB 8.3.0 (R2014a) platform according to equations (1) and (2): […]
were [MnL]t stands for the total concentration of MnL complex, Kobs stands for the pseudo-first order constant and t1/2 is the half-life of the MnL complex in the given conditions.

The nature of data set [3]: Longitudinal relaxivity r1 in water at 60 MHz (WP80 NMR, Bruker). Type of data set: physicochemical. The note with it: at 25° C., pH = 7.4, and 60 MHz. As for the experimental part: Equimolar quantities of ligand and MnCl2 were dissolved in milli-Q water, the pH was adjusted to 7.4 either with a buffered solution or by adding KOH or HCl to the solution and the samples were heated at 60° C. for 30 min. The absence of free Mn^2+ was checked by the Xylenol orange test.
The relaxivity at 60 MHz is measured with a device commercialized under the brand name WP80 NMR by the firm Brucker according to the following protocol. A millimolar aqueous solution of complex was prepared with Milli-Q water (p<18MΩ). The concentration of Mn^2+-containing samples was checked by ICP-OES and/or NMR by using the bulk magnetic susceptibility. The absence of free Mn^2+ was checked by the Xylenol orange test. For the relaxivity measurement, the temperature was monitored by a VTC91 temperature control unit and maintained by a gas flow. The temperature was determined by previous calibration with a Pt resistance temperature probe.

As to `CNC[C@H](O)[C@@H](O)[C@H](O)[C@H](O)CO.O=C([O-])CN1CCN(CC(=O)[O-])CCN(CC(=O)O)CCN(CC(=O)[O-])CC1.[Gd+3]` [Dotarem, gadoterate meglumine], in data set [1], the “relaxivity r1” value is 3.7 mM⁻¹ s⁻¹.
Consider `CN1[C@@H](c2ccccn2)C2(C(=O)O)CN([C@@H](CCCCNC(=O)CCOCCOCCO)C(=O)O)CC(C(=O)O)([C@H]2O)[C@H]1c1ccccn1` [(I-d)], for which the half-life at 1 mM in data set [2] was 160 days. Besides, the “Longitudinal relaxivity in water (r1)” value in data set [3] (listed as (I-D)) came to 4.03 mM⁻¹ s⁻¹.
Take `CN1[C@@H](c2ccccn2)C2(C(=O)O)CN([C@@H](CCCCNC(=O)CCOCCOCCO)C(=O)O)CC(C(=O)O)([C@H]2O)[C@H]1c1ccccn1` [(I-a)]: the “Longitudinal relaxivity in water (r1)” value in data set [3] (listed as (I-A)) was determined as 4.89 mM⁻¹ s⁻¹.

(Values after patent publication US20250064993A1, “NOVEL BISPIDINE-BASED METAL CHELATING LIGANDS DISPLAYING GOOD RELAXIVITY” (UNIVERSITE DE STRASBOURG, priority 2021, published 2025).)
